In patent US5665745A, “Heterocyclic compounds and their preparation and use” (Eli Lilly and Company, priority 1995, dated 1997):
Read-outs that look alike come from different tables or passages of the source.

How the values were obtained:
[1] = molecular target: muscarinic acetylcholine receptors; assay: inhibition of specific binding of ^3 H-Oxotremorine-M (^3 H-Oxo); set-up: species or system rat (male Wistar; conditions: ^3 H-Oxotremorine 1.0 nM, rat cortex, 30 min. at 25° C.
Excerpt: The pharmacological properties of the compounds of the invention can be illustrated by determining their capability to inhibit the specific binding of ^3 H-Oxotremorine-M (^3 H-Oxo). Birdsdall N. J. M., Hulme E. C., and Burgen A. S. V. (1980). "The Character of Muscarinic Receptors in Different Regions of the Rat Brain" Proc. Roy. Soc. London (Series B) 207,1.
^3 H-Oxo labels muscarinic receptor in the CNS (with a preference for agonist domains of the receptors). Three different sites are labeled by ^3 H-Oxo. […] Using the present experimental conditions only the high and medium affinity sites are determined.
The inhibitory effects of compounds on ^3 H-oxo binding reflects the affinity for muscarinic acetylcholine receptors.
(§1) All preparations are performed at 0°-4° C. unless otherwise indicated. Fresh cortex (0.1-1 g) from male Wistar rats (150-250 g) is homogenized for 5-10 seconds in 10 mL 20 nM Hepes pH: 7.4, with an Ultra-Turrax homogenizer. The homogenizer is rinsed with 10 mL of buffer and the combined suspension centrifuged for 15 min. at 40,000×g. The pellet is washed three times with buffer. In each step the pellet is homogenized as before in 2×10 mL of buffer and centrifuged for 10 min. at 40,000×g.
The final pellet is homogenized in 20 mM Hepes pH: 7.4 (100 mL per g of original tissue) and used for binding assay. Aliquots of 0.5 mL is added 25 μL of test solution and 25 μL of ^3 H-Oxotremorine (1.0 nM, final concentration) mixed and incubated for 30 min. at 25° C. Non-specific binding is determined in triplicate using arecoline ([…], final concentration) as the test substance. After incubation samples are added 5 mL of ice-cold buffer and poured directly onto Whatman GF/C glass fiber filters under suction and immediately washed 2 times with 5 mL of ice-cold buffer. The amount of radioactivity on the filters are determined by conventional liquid scintillation counting. Specific binding is total binding minus non specific binding.
Test substances are dissolved in 10 mL water (if necessary heated on a steam-bath for less than 5 min.) at a concentration of 2.2 mg/mL. […] The test value will be given as IC50 (the concentration (nM) of the test substance which inhibits the specific binding of ^3 H-oxo by 50%). IC50 =(applied test substance concentration) x(Cx /Co -Cx)nM where Co is specific binding in control assays and Cx is the specific binding in the test assay. (The calculations assume normal mass-action kinetics).

[2] = molecular target: T1, muscarinic receptors (M1 -site, pirenzepine sensitive site) (Rattus norvegicus, UniProt P08482); assay: inhibition of ^3 HPRZ (pirenzepine, [N-methyl-^3 H]) binding to rat cerebral cortex membranes; set-up: species or system rat (male Wistar
T1 construct: from tissue; host or cells: cerebral cortex membranes of male Wistar rats
T1 sequence (P08482 1-460): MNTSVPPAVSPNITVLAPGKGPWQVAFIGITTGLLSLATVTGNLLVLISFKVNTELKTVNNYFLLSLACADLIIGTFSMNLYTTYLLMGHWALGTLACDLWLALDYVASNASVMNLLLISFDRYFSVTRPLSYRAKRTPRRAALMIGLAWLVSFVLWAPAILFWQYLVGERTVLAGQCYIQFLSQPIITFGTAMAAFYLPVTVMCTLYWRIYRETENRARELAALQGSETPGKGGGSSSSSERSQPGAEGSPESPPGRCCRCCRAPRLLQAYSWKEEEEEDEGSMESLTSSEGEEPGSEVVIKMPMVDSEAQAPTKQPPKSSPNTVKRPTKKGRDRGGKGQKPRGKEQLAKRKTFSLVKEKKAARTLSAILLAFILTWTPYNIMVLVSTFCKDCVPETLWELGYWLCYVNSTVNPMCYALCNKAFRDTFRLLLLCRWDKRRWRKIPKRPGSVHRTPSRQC
Experimental: Furthermore the pharmacological properties of the compounds of the invention can also be illustrated by determining their capability to inhibit ^3 HPRZ (pirenzepine, [N-methyl-^3 H]) binding to rat cerebral cortex membranes.
Pirenzepine binds selectively to subtype of muscarinic receptors. Historically the type is named the M1 -site, whereas pirenzepine sensitive site would be more appropriate.
as §1, with “cortex ([…])” for “cortex (0.1-1 g)”, “rats (150-200” for “rats (150-250”, “5-10 s” for “5-10 seconds”, “20 mM” for “20 nM”, “with 2×10” for “with 10”, “in 3×10” for “in 2×10”
The final pellet is homogenized in 20 mM Hepes pH: 7.4 (100 mL per g of original tissue) and used for binding assay. Aliquots of 0.5 mL is added 20 μl of test solution and 25 μL of ^3 HPRZ (1.0 nM, final conc.), mixed and incubated for 60 min. at 20° C. Non-specific binding is determined in triplicate using atropine (1 ,μg/mL, final conc.) as the test substance. After incubation samples are added 5 mL of ice-cold buffer and poured directly onto Whatman GF/C glass fiber filters under suction and immediately washed 2 times with 5 mL of ice-cold buffer. The amount of radioactivity on the filters are determined by conventional liquid scintillation counting. Specific binding is total binding minus non-specific binding.
Test substances are dissolved in 10 mL water, at a concentration of 0.22 mg/mL.
The test value will be given as IC50 (the concentration (nM) of the test substance which inhibits the specific binding of ^3 HPRZ by 50%). IC50 =(applied test substance concentration) x(Cx /Co -Cx)nM where Co is specific binding in control assays and Cx is the specific binding in the test assay. (The calculations assume normal mass-action kinetics).

[3] = ^3 HPRZ 1.0 nM, rat cortex, 60 min. at 20° C., read-out: ^3 HPRZ IC50 (head from b208 on: Pir IC-50)

| Structure (SMILES) | IC50 [1] | IC50 [2, 3] | IC50 [2] |
| --- | --- | --- | --- |
| CCCCNc1nsnc1OC1CN2CCC1CC2 (racemic) [Compound 75, 3-(1-Butylamino)-4-[(+,-)-3-(azabicyclo[2.2.2]octyloxy)]-1,2,5-thiadiazole] | 65 nM | 128 nM |  |
| CSCCc1nsnc1OC1CN2CCC1CC2 (racemic) [Compound 99, (±)-3-(2-Methylthioethyl)-4-(1-azabicyclo[2.2.2]octyl-3-oxy)-1,2,5-thiadiazole] | 41 nM |  | 70 nM |
| CCCCCSc1nsnc1O[C@@H]1CN2CCC[C@H]1C2 (relative stereo) [Compound 24, (±)-Endo-3-pentylthio-4-(1-azabicyclo[3.2.1]-octyl-6-oxy)-1,2,5-thiadiazole] | 19 nM | 19 nM |  |
| ClCCCOc1nsnc1O[C@@H]1CN2CCC[C@H]1C2 (relative stereo) [Compound 177, (±)-endo-3-(3-Chloropropoxy)-4-(1-azabicyclo[3.2.1]octyl-6-oxy)-1,2,5-thiadiazole] | 1.1 nM | 2 nM |  |
| FCCCCOc1nsnc1OC1CN2CCC1CC2 (racemic) [Compound 117, (±)-3-(4-Fluorobutyloxy)-4-(1-azabicyclo[2.2.2]octyl-3-oxy)-1,2,5-thiadiazole] | 32 nM | 238 nM |  |
| c1csc(SCCSc2nsnc2OC2CN3CCC2CC3)c1 (racemic) [Compound 19, (±)-3-(2-(2-Thienylthio)ethylthio)-4-(1-azabicyclo-[2.2.2]octyl-3-oxy)-1,2,5-thiadiazole] | 0.36 nM |  | 7.5 nM |
| O=C1CCCn2cccc21 [Compound 139, 1-azabicyclo[4.3.0]nona-6,8-diene-5-one] | 230 nM | 145 nM |  |
| c1ccc(CCSc2nsnc2OC2CN3CCC2CC3)cc1 (racemic) [Compound 43, (±)-3-(2-Phenylethylthio)-4-(1-azabicyclo[2.2.2]octyl-3-oxy)-1,2,5-thiadiazole] | 29 nM |  | 33 nM |
| CCCCSc1nsnc1O[C@@H]1CCC[C@H]1N(C)C (racemic) [Compound 143, (±)-trans-3-Butylthio-4-(2-dimethylaminocyclopentyloxy)-1,2,5-thiadiazole] | 1400 nM | 637 nM |  |
| CCCCSc1nsnc1OCCN(C)C [Compound 144, 3-Butylthio-4-(2-dimethylaminoethoxy)-1,2,5-thiadiazole] | 12 nM | 9 nM |  |
| Cl/C=C/COc1nsnc1OC1CN2CCC1CC2 (mixture of isomers) [Compound 120, (±)-3-(trans-3-chloro-2-propenyloxy)-4-(1-azabicyclo[2.2.2]octyl-3-oxy)-1,2,5-thiadiazole] | 11 nM |  | 71 nM |
| COc1nsnc1OC1CN2CCC1CC2 (racemic) [Compound 5, (±)-3-Methoxy-4-(1-azabicyclo[2.2.2]octyl-3-oxy)-1,2,5-thiadiazole] | 162 nM | 183 nM |  |
| c1ccc(OCCSc2nsnc2OC2CN3CCC2CC3)cc1 (racemic) [Compound 44, (±)-3-(2-Phenyloxyethylthio)-4-(1-azabicyclo[2.2.2]octyl-3-oxy)-1,2,5-thiadiazole] | 7.1 nM |  | 15 nM |
| Clc1nsnc1O[C@H]1CN2CCC[C@@H]1C2 (relative stereo) [Compound 48, (±)-endo-3-Chloro-4-(1-azabicyclo [3.2.1]octyl-6-oxy)-1,2,5-thiadiazole] | 14 nM |  | 27 nM |
| COCCOc1nsnc1OC1CN2CCC1CC2 (racemic) [Compound 111, (±)-3-(2-Methoxyethoxy)-4-(1-azabicyclo[2.2.2]octyl-3-oxy)-1,2,5-thiadiazole] | 38 nM |  | 85 nM |
| N#Cc1ccc(CSc2nsnc2O[C@H]2CN3CCC[C@@H]2C3)cc1 (relative stereo) [Compound 49, (±)-endo-3-(4-Cyanobenzylthio)-4-(1-azabicyclo[3.2.1]octyl-6-oxy)-1,2,5-thiadiazole] | 1.8 nM | 1.9 nM |  |
| C#CC(C)Oc1nsnc1OC1CN2CCCC1C2 (mixture of isomers) [Compound 203, (±)-endo-3-(3-Butyn-2-oxy)-4-(1-azabicyclo[3.2.1]octyl-6-oxy)-1,2,5-thiadiazole] | 3.1 nM | 4.3 nM |  |
| CC#CCCOc1nsnc1O[C@@H]1CN2CCC[C@H]1C2 (relative stereo) [Compound 175, (±)-endo-3-(3-Pentynyloxy)-4-(1-azabicyclo[3.2.1]octyl-6-oxy)-1,2,5-thiadiazole] | 0.74 nM | 2.7 nM |  |
| Fc1ccc(CSc2nsnc2OC2CN3CCC2CC3)cc1 (racemic) [Compound 42, (±)-3-(4-Fluorobenzylthio)-4-(1-azabicyclo[2.2.2]octyl-3-oxy)-1,2,5-thiadiazole] | 14 nM |  | 9.3 nM |
| Clc1nsnc1O[C@@H]1CN2CCC[C@@H]1C2 (relative stereo) [Compound 47, (±)-exo-3-Chloro-4-(1-azabicyclo[3.2.1]octyl-6-oxy)-1,2,5thiadiazole] | 54 nM |  | 23 nM |
| c1csc(COc2nsnc2O[C@@H]2CN3CCC[C@H]2C3)c1 (relative stereo) [Compound 173, (±)-endo-3-(2-Thienylmethoxy)-4-(1-azabicyclo[3.2.1]octyl-6-oxy)-1,2,5-thiadiazole] | 1 nM | 1.4 nM |  |
| Brc1ccc(OCCOc2nsnc2OC2CN3CCC2CC3)cc1 (racemic) [Compound 128, (±)-3-(2-[4-Bromophenoxy]ethoxy)-4-(1-azabicyclo[2.2.2]octyl-3-oxy)-1,2,5-thiadiazole] | 6.9 nM | 109 nM |  |
| FC(F)(F)C(F)(F)C(F)(F)COc1nsnc1O[C@@H]1CN2CCC[C@H]1C2 (relative stereo) [Compound 187, (±)-endo-3-(4,4,4,3,3,2,2-Heptafluorobutoxy)-4-(1-azabicyclo[3.2.1]octyl-6-oxy)-1,2,5-thiadiazole] | 2.8 nM |  | 1.6 nM |
| C/C=C/COc1nsnc1O[C@@H]1CN2CCC[C@H]1C2 (relative stereo) [Compound 169, (±)-endo-3-(trans-2-Butenyloxy)-4-(1-azabicyclo[3.2.1]octyl-6-oxy)-1,2,5-thiadiazole] | 1 nM | 1.9 nM |  |
